Laboratory results as given in PubChem BioAssay AID328 (DTP/NCI, 2004).
Values joined by “and” are separate entries in the source; they are usually repeats but may differ in a detail not shown here. Identical values can stand only once. Toxic doses and inconclusive results are not listed.

Test system: BDF1 mice, P388 leukemia ip, median survival T/C
Assay: NCI In Vivo Anticancer Drug Screen. Data for tumor model P388 Leukemia (intraperitoneal) in B6D2F1 (BDF1) mice
Conditions: endpoint: median survival time, higher = longer survival
How it was run: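 Survival ratio, drug arm over vehicle arm, in mice with a transplanted tumour.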

[1] = dose: 200.0 mg/kg/injection, schedule: Q04DX003 (ip), vehicle: Klucel (hydroxypropylcellulose) (HPC)
[2] = dose: 100.0 mg/kg/injection, schedule: Q01DX009 (ip), vehicle: Klucel (hydroxypropylcellulose) (HPC)
[3] = dose: 200.0 mg/kg/injection, schedule: Q01DX009 (ip), vehicle: Klucel (hydroxypropylcellulose) (HPC)
[4] = dose: 50.0 mg/kg/injection, schedule: Q01DX009 (ip), vehicle: saline with Tween-80
[5] = dose: 100.0 mg/kg/injection, schedule: Q01DX009 (ip), vehicle: saline with Tween-80
[6] = dose: 200.0 mg/kg/injection, schedule: Q01DX009 (ip), vehicle: saline with Tween-80
[7] = dose: 100.0 mg/kg/injection, schedule: Q04DX003 (ip), vehicle: saline with Tween-80
[8] = dose: 200.0 mg/kg/injection, schedule: Q04DX003 (ip), vehicle: saline with Tween-80
[9] = dose: 400.0 mg/kg/injection, schedule: Q01DX009 (ip), vehicle: Klucel (hydroxypropylcellulose) (HPC)
[10] = dose: 100.0 mg/kg/injection, schedule: Q01DX001 (ip), vehicle: saline with Tween-80
[11] = dose: 200.0 mg/kg/injection, schedule: Q01DX001 (ip), vehicle: saline with Tween-80

CC(CN1CC(=O)NC(=O)C1)N1CC(=O)NC(=O)C1 (configuration not stated)
T/C (dose: 3.12 mg/kg/injection, schedule: Q03HX024 (ip), vehicle: steriod suspending solution): 200 % of control | T/C (dose: 3.75 mg/kg/injection, schedule: Q01DX010 (oral), vehicle: saline with Tween-80): 109 % of control | T/C (dose: 6.25 mg/kg/injection, schedule: Q03HX024 (ip), vehicle: steriod suspending solution): 205 % of control | T/C (dose: 10.0 mg/kg/injection, schedule: Q04DX003 (ip), vehicle: Klucel (hydroxypropylcellulose) (HPC)): 117 % of control | T/C (dose: 12.5 mg/kg/injection, schedule: Q01DX009 (ip), vehicle: steriod suspending solution): 100 % of control | T/C (dose: 12.5 mg/kg/injection, schedule: Q03HX024 (ip), vehicle: steriod suspending solution): 258 % of control | T/C (dose: 15.0 mg/kg/injection, schedule: Q01DX010 (oral), vehicle: saline with Tween-80): 154 % of control | T/C (dose: 25.0 mg/kg/injection, schedule: Q03HX024 (ip), vehicle: steriod suspending solution): 211 % of control | T/C (dose: 30.0 mg/kg/injection, schedule: Q01DX010 (ip), vehicle: saline): 186 % of control | T/C (dose: 50.0 mg/kg/injection, schedule: Q01DX009 (ip), vehicle: steriod suspending solution): 164 % of control | T/C (dose: 50.0 mg/kg/injection, schedule: Q04DX002 (ip), vehicle: Klucel (hydroxypropylcellulose) (HPC)): 111 % of control | T/C (dose: 60.0 mg/kg/injection, schedule: Q01DX010 (ip), vehicle: saline): 181 % of control | T/C (dose: 100.0 mg/kg/injection, schedule: Q01DX001 (ip), vehicle: steriod suspending solution): 111 % of control | T/C (dose: 100.0 mg/kg/injection, schedule: Q01DX009 (ip), vehicle: steriod suspending solution): 111 % of control | T/C (dose: 100.0 mg/kg/injection, schedule: Q04DX002 (ip), vehicle: Klucel (hydroxypropylcellulose) (HPC)): 108 % of control | T/C (dose: 100.0 mg/kg/injection, schedule: Q04DX003 (ip), vehicle: steriod suspending solution): 176 % of control | T/C (dose: 108.0 mg/kg/injection, schedule: Q04DX003 (ip), vehicle: Klucel (hydroxypropylcellulose) (HPC)): 231 % of control | T/C (dose: 120.0 mg/kg/injection, schedule: Q01DX010 (ip), vehicle: saline): 113 % of control | T/C (dose: 144.0 mg/kg/injection, schedule: Q04DX003 (ip), vehicle: Klucel (hydroxypropylcellulose) (HPC)): 203 % of control | T/C (dose: 180.0 mg/kg/injection, schedule: Q04DX003 (ip), vehicle: Klucel (hydroxypropylcellulose) (HPC)): 287 % of control | T/C (dose: 180.0 mg/kg/injection, schedule: Q04DX003 (ip), vehicle: alkali diluted with saline): 196 % of control | T/C (dose: 200.0 mg/kg/injection, schedule: Q04DX002 (ip), vehicle: Klucel (hydroxypropylcellulose) (HPC)): 161 % of control | T/C [1]: 100 % of control and 153 % of control and 215 % of control | T/C (dose: 200.0 mg/kg/injection, schedule: Q04DX003 (ip), vehicle: steriod suspending solution): 194 % of control | T/C (dose: 216.0 mg/kg/injection, schedule: Q04DX003 (ip), vehicle: Klucel (hydroxypropylcellulose) (HPC)): 212 % of control | T/C (dose: 240.0 mg/kg/injection, schedule: Q04DX003 (ip), vehicle: Klucel (hydroxypropylcellulose) (HPC)): 245 % of control | T/C (dose: 300.0 mg/kg/injection, schedule: Q04DX003 (ip), vehicle: alkali diluted with saline): 252 % of control | T/C (dose: 400.0 mg/kg/injection, schedule: Q01DX001 (ip), vehicle: steriod suspending solution): 152 % of control | T/C (dose: 400.0 mg/kg/injection, schedule: Q04DX002 (ip), vehicle: Klucel (hydroxypropylcellulose) (HPC)): 193 % of control and 199 % of control | T/C (dose: 400.0 mg/kg/injection, schedule: Q04DX003 (ip), vehicle: steriod suspending solution): 176 % of control | T/C (dose: 500.0 mg/kg/injection, schedule: Q04DX003 (ip), vehicle: Klucel (hydroxypropylcellulose) (HPC)): 91 % of control and 96 % of control | T/C (dose: 500.0 mg/kg/injection, schedule: Q04DX003 (ip), vehicle: alkali diluted with saline): 93 % of control | T/C (dose: 800.0 mg/kg/injection, schedule: Q01DX001 (ip), vehicle: steriod suspending solution): 94 % of control | T/C (dose: 800.0 mg/kg/injection, schedule: Q04DX003 (ip), vehicle: steriod suspending solution): 111 % of control

CN(C)P(Cl)(Cc1ccccc1)(c1ccccc1)c1ccccc1
T/C (dose: 3.0 mg/kg/injection, schedule: Q01DX009 (ip), vehicle: saline): 108 % of control | T/C (dose: 3.0 mg/kg/injection, schedule: Q04DX003 (ip), vehicle: saline): 110 % of control | T/C (dose: 6.0 mg/kg/injection, schedule: Q01DX009 (ip), vehicle: saline): 116 % of control and 122 % of control | T/C (dose: 6.0 mg/kg/injection, schedule: Q04DX003 (ip), vehicle: saline): 105 % of control | T/C (dose: 12.0 mg/kg/injection, schedule: Q04DX003 (ip), vehicle: saline): 110 % of control

C(=Nc1ccc2c(c1)Cc1ccccc1-2)c1ccccc1
T/C (dose: 50.0 mg/kg/injection, schedule: Q01DX009 (ip), vehicle: Klucel (hydroxypropylcellulose) (HPC)): 90 % of control | T/C [2]: 109 % of control | T/C [3]: 100 % of control

CS(=O)CC(O)(c1ccccc1)c1ccccn1 (configuration not stated)
T/C [4]: 103 % of control | T/C [5]: 110 % of control | T/C [6]: 100 % of control

CC1(C)O[C@@H]2C[C@H]3[C@@H]4CCC5=CC(=O)C=C[C@]5(C)[C@@]4(F)[C@@H](O)C[C@]3(C)[C@]2(C(=O)CO)O1
T/C [4]: 100 % of control | T/C [7]: 108 % of control | T/C [8]: 100 % of control

CC(C)CSc1nc(N)nc2nc[nH]c12
T/C [7]: 109 % of control | T/C [8]: 109 % of control

O=C1/C(=C/c2cccc([N+](=O)[O-])c2)CCc2ccccc21
T/C (dose: 100.0 mg/kg/injection, schedule: Q04DX003 (ip), vehicle: Klucel (hydroxypropylcellulose) (HPC)): 100 % of control | T/C [1]: 100 % of control | T/C [9]: 104 % of control | T/C (dose: 400.0 mg/kg/injection, schedule: Q04DX003 (ip), vehicle: Klucel (hydroxypropylcellulose) (HPC)): 95 % of control

CC(C)n1c2c([n+](C)c1/C=C/c1ccccc1)C(=O)c1ccccc1C2=O
T/C (dose: 0.5 mg/kg/injection, schedule: Q01DX010 (ip), vehicle: saline): 109 % of control | T/C (dose: 1.0 mg/kg/injection, schedule: Q01DX009 (ip), vehicle: Klucel (hydroxypropylcellulose) (HPC)): 105 % of control | T/C (dose: 2.0 mg/kg/injection, schedule: Q01DX010 (ip), vehicle: saline): 122 % of control

CC1(C)OCC(/C=C/C=N/Nc2ccc([N+](=O)[O-])cc2)O1 (configuration not stated)
T/C [10]: 105 % of control | T/C [11]: 110 % of control

N=C(N)CCNC(=O)C1CCC(N)=N1 (configuration not stated)
T/C (dose: 2.0 mg/kg/injection, schedule: Q01DX009 (ip), vehicle: saline): 91 % of control | T/C (dose: 4.0 mg/kg/injection, schedule: Q01DX009 (ip), vehicle: saline): 100 % of control | T/C (dose: 8.0 mg/kg/injection, schedule: Q01DX009 (ip), vehicle: saline): 108 % of control

CCOC(=O)c1cnc(C)[nH]c1=O
T/C (dose: 25.0 mg/kg/injection, schedule: Q01DX009 (ip), vehicle: saline): 113 % of control | T/C (dose: 50.0 mg/kg/injection, schedule: Q01DX009 (ip), vehicle: saline): 118 % of control | T/C (dose: 50.0 mg/kg/injection, schedule: Q04DX003 (ip), vehicle: saline): 100 % of control | T/C (dose: 100.0 mg/kg/injection, schedule: Q01DX009 (ip), vehicle: saline): 100 % of control | T/C (dose: 100.0 mg/kg/injection, schedule: Q04DX003 (ip), vehicle: saline): 104 % of control | T/C (dose: 200.0 mg/kg/injection, schedule: Q04DX003 (ip), vehicle: saline): 86 % of control

CCNC(C)(C)C(=O)c1ccc(Cl)s1
T/C (dose: 25.0 mg/kg/injection, schedule: Q01DX009 (ip), vehicle: saline with Tween-80): 98 % of control | T/C [4]: 91 % of control | T/C (dose: 50.0 mg/kg/injection, schedule: Q04DX003 (ip), vehicle: saline with Tween-80): 99 % of control | T/C [5]: 96 % of control | T/C [7]: 86 % of control and 109 % of control | T/C [8]: 89 % of control and 104 % of control | T/C (dose: 400.0 mg/kg/injection, schedule: Q04DX003 (ip), vehicle: saline with Tween-80): 95 % of control and 96 % of control

c1ccc(P(OC2CCCCC2)OC2CCCCC2)cc1
T/C [4]: 109 % of control | T/C [5]: 109 % of control | T/C [6]: 110 % of control

NS(=O)(=O)c1ccc(NC(=O)c2ccccc2C(=O)O)cc1
T/C [2]: 95 % of control | T/C [3]: 100 % of control | T/C [9]: 105 % of control

Cc1noc2ncnc(NCCCN(C)C)c12
T/C [4]: 99 % of control | T/C [5]: 99 % of control | T/C [6]: 102 % of control

CC(C)NC(=O)c1ccccc1S(=O)(=O)c1ccccc1C(=O)NC(C)C
T/C [10]: 108 % of control | T/C [11]: 100 % of control | T/C (dose: 400.0 mg/kg/injection, schedule: Q01DX001 (ip), vehicle: saline with Tween-80): 100 % of control
